# Assay results taken from US20080103169A1, “COMPOSITIONS COMPRISING ACID LABILE PROTON PUMP INHIBITING AGENTS, AT LEAST ONE OTHER […] ACTIVE AGENT AND METHODS OF USING SAME” (priority 2006, published 2008).
# Read-outs that look alike come from different tables or passages of the source.
# Assays:
# [1] = PPI half-life (serum concentration profile), n of 1 studies; assay type: in vivo, human; details: for half-life: human, serum, Day 1, n of 1
# Excerpt: The measure of a PPIs activity can be predicted by looking at AUC above 1 micromole. The elimination rate (Kel) is the only variable that can be changed to increase the AUC for a given PPI. Half-life=0.693/Kel
# These are all n of 1 studies all performed on the same subject. (Unless otherwise stated, 1.68 g NaHCO3 was used as buffering agent)
# H+, K+-ATPase = target: T1, H+, K+-ATPase (Rattus norvegicus, UniProt P09626); details: cited from earlier work
# T1 construct: host or cells: rats (in vivo treatment; endogenous gastric enzyme)
# [2] = oral, 120 mg, IR 120 mg given alone
# [3] = oral, given as OME-IR 120 mg+Tenatoprazole IR 40 mg+Cimetidine 200 mg
# [4] = oral, given as OME-IR 120 mg+Tenatoprazole IR 40 mg
# T1 sequence (P09626 whole entry): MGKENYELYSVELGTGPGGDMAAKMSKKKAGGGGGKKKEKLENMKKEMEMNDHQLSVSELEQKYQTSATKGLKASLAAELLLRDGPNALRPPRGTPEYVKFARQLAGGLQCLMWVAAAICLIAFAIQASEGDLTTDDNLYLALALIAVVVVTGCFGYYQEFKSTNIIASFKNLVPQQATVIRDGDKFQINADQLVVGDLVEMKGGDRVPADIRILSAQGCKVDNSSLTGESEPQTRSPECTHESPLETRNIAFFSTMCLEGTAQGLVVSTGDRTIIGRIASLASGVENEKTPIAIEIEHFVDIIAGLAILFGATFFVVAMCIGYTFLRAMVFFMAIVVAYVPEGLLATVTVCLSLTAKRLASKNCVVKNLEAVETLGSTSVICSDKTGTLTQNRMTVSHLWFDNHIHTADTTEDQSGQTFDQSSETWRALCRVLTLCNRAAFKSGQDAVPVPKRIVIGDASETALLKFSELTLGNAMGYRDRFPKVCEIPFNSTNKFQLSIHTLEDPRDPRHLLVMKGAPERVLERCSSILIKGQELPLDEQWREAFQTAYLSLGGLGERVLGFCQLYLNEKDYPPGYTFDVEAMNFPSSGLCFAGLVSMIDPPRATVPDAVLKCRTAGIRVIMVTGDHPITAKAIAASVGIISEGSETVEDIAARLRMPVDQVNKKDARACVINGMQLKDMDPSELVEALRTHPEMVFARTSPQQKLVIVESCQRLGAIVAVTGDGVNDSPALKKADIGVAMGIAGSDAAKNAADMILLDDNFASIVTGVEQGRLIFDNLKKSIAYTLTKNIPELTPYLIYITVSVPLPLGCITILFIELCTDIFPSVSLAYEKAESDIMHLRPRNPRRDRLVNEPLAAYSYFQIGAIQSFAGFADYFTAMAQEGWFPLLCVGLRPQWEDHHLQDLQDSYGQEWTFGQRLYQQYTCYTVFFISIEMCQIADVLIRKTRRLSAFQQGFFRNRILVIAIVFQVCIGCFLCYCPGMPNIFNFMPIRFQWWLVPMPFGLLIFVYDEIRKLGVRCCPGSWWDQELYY
# T1 sequence (P18598 whole entry partner): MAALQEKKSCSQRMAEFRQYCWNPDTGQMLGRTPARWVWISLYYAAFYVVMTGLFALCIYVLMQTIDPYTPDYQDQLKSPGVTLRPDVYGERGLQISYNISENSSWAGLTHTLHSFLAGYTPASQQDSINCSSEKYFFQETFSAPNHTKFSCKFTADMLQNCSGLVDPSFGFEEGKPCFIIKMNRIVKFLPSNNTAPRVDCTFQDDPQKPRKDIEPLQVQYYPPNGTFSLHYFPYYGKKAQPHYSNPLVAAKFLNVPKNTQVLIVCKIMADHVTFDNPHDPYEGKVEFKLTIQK
compound,measurement,setting,value
COc1ccc2nc([S@@+]([O-])Cc3ncc(C)c(OC)c3C)[nH]c2c1 [esomeprazole],half-life,"[1]; 40 mg, 40 mg given alone",1.4 h
Cc1c(OCC(F)(F)F)ccnc1C[S+]([O-])c1nc2ccccc2[nH]1 (stereo not shown) [lansoprazole],half-life,"[1]; oral, given as OME-IR 80 mg+Lansoprazole IR 80 mg",3.1 h
"COc1ccc2[nH]c([S+]([O-])Cc3ncc(C)c(OC)c3C)nc2c1 (stereo not shown) [omeprazole, 5-methoxy-2-[[(4-methoxy-3,5-dimethyl-2-pyridinyl)methyl]sulfinyl]-1H benzimidazole]","effect of omeprazole on H+, K+-ATPase activity","H+, K+-ATPase; rats pretreated with cimetidine, compared to control (no pretreatment)",much reduced effect
same,"effect of omeprazole on H+, K+-ATPase activity","H+, K+-ATPase; rats pretreated with secretogue carbachol",increased the effect of omeprazole
same,half-life of omeprazole,[1]; administered with cimetidine (FIG. 11),three
same,half-life,[1]; [2],1.8 h
same,half-life,"[1]; oral, given as OME-IR 120 mg+Cimetidine 200 mg",2.1 h
same,half-life,[1]; [3],1.8 h
same,half-life,[1]; [4],1.8 h
"COc1ccc2[nH]c([S+]([O-])Cc3ncc(C)c(OC)c3C)nc2n1 (stereo not shown) [tenatoprazole, 5-methoxy-2-[[(4-methoxy-3,5-dimethyl-2-pyridyl)methyl]sulfinyl]imidazo[4,5-b]pyridine]",half-life,"[1]; oral, 40 mg, 40 mg given alone",7 h
same,half-life,[1]; [2],8.7 h
same,half-life,[1]; [3],12.9 h
same,half-life,[1]; [4],12.9 h
